How the values were obtained:
Psy-Lig = target: T1, Psy-Lig (Psychromonas sp. SP041, UniProt A0ACD6BAT9); experiment: X-ray crystal structure, […] Å (SeMet protein); format: binding; settings: covalent; phosphoamide bond to Lys25 side chain (mature numbering), enzyme-adenylate intermediate formed from ATP; active site
T1 construct: mature protein, 40-residue periplasmic leader removed (cleavage Ala40/Gln41), 257 residues; N-terminal His tag and TEV site, vector pHMGWA, expressed in E. coli; pre-adenylated with ATP; SeMet form crystallised

[1] = substrate: Nc1ncnc2c1ncn2[C@@H]1O[C@H](COP(=O)(O)OP(=O)(O)OP(=O)(O)O)[C@@H](O)[C@H]1O; experiment: molecular beacon fluorescence nick-sealing assay, Michaelis-Menten fit; format: biochemical, Psychromonas sp. SP041; settings: 300 nM nicked ds-DNA beacon, 2.0 nM enzyme, 10 mM MgCl2, 100 mM NaCl, 1 mM DTT, 50 mM Tris pH 8.0, 30 °C, ATP 0-50 µM

| Molecule | X-ray crystal structure, 1.65 Å (SeMet protein) (Psy-Lig) | Km [1] |
| --- | --- | --- |
| Nc1ncnc2c1ncn2[C@@H]1O[C@H](COP(=O)(O)O)[C@@H](O)[C@H]1O [AMP] | AMP bound in the active site was clear in the observed electron density, covalently linked |  |
| Psy-Lig (Psychromonas sp. SP041) (protein, mature protein, 40-residue periplasmic leader removed (cleavage Ala40/Gln41), 257 residues; N-terminal His tag and TEV site, vector pHMGWA, expressed in E. coli; pre-adenylated with ATP; SeMet form crystallised) QPPPIQLATNYRQDIDVTQYYVSEKLDGIRAYWNGHQLISKQGNIFTAPTWFIASFPTTAMDGELWIARQQFETVSGIARTQDNQNEQWKQIKFMIFDLPKSTVSFEQRINKMQTLVTDTNSPYLQMIEQQKIPNTVALFDLLNKVVMGKGEGLMLHHQDALYQTKRSRDLMKLKKFEDAEATVIAYLPGKGKYEGLLGAILVKNEEGVTFKIGSGFSDEERSTPPPIGSLITYRFTGKTNNNIPRFASFVRIRVIY |  | 3.8 ± 0.7 µM |
